The NIST ThermoML archive (doi:10.1016/j.jct.2008.10.010)
± gives the expanded uncertainty stated by the source.

Assay: molar heat capacity at constant pressure; xn = mol fraction of the nth substance listed
Conditions: 101.3 kPa, Liquid, Small sample (50 mg) DSC

CCC(C)(C)O [2-methylbutan-2-ol] + CCCCCCC
molar heat capacity at constant pressure (336.14 K, x1 = 0.1): 252.29 ± 3.9 J/K/mol | molar heat capacity at constant pressure (336.14 K, x1 = 0.1547): 260.02 ± 4 J/K/mol | molar heat capacity at constant pressure (336.14 K, x1 = 0.1999): 265.26 ± 4.1 J/K/mol | molar heat capacity at constant pressure (336.14 K, x1 = 0.2993): 273.56 ± 4.2 J/K/mol | molar heat capacity at constant pressure (336.14 K, x1 = 0.4051): 279.11 ± 4.3 J/K/mol | molar heat capacity at constant pressure (336.14 K, x1 = 0.4986): 282.65 ± 4.4 J/K/mol | molar heat capacity at constant pressure (336.14 K, x1 = 0.5981): 285.05 ± 4.4 J/K/mol | molar heat capacity at constant pressure (336.14 K, x1 = 0.7015): 286.5 ± 4.4 J/K/mol | molar heat capacity at constant pressure (336.14 K, x1 = 0.8023): 286.51 ± 4.4 J/K/mol | molar heat capacity at constant pressure (336.14 K, x1 = 0.9139): 285.7 ± 4.4 J/K/mol | molar heat capacity at constant pressure (336.14 K, x1 = 0.9609): 284.91 ± 4.4 J/K/mol | molar heat capacity at constant pressure (337.15 K, x1 = 0.0061): 240.08 ± 3.7 J/K/mol | molar heat capacity at constant pressure (337.15 K, x1 = 0.0249): 241 ± 3.7 J/K/mol | molar heat capacity at constant pressure (337.15 K, x1 = 0.0494): 244 ± 3.8 J/K/mol | molar heat capacity at constant pressure (337.15 K, x1 = 0.1): 252.41 ± 3.9 J/K/mol | molar heat capacity at constant pressure (337.15 K, x1 = 0.1547): 260.16 ± 4 J/K/mol | molar heat capacity at constant pressure (337.15 K, x1 = 0.1999): 265.46 ± 4.1 J/K/mol | molar heat capacity at constant pressure (337.15 K, x1 = 0.2993): 273.86 ± 4.2 J/K/mol | molar heat capacity at constant pressure (337.15 K, x1 = 0.4051): 279.59 ± 4.3 J/K/mol | molar heat capacity at constant pressure (337.15 K, x1 = 0.4986): 283.2 ± 4.4 J/K/mol | molar heat capacity at constant pressure (337.15 K, x1 = 0.5981): 285.63 ± 4.4 J/K/mol | molar heat capacity at constant pressure (337.15 K, x1 = 0.7015): 287.22 ± 4.5 J/K/mol | molar heat capacity at constant pressure (337.15 K, x1 = 0.8023): 287.25 ± 4.5 J/K/mol | molar heat capacity at constant pressure (337.15 K, x1 = 0.9139): 286.44 ± 4.4 J/K/mol | molar heat capacity at constant pressure (337.15 K, x1 = 0.9609): 285.69 ± 4.4 J/K/mol | molar heat capacity at constant pressure (338.14 K, x1 = 0.0061): 240.6 ± 3.7 J/K/mol | molar heat capacity at constant pressure (338.14 K, x1 = 0.0249): 241.26 ± 3.7 J/K/mol | molar heat capacity at constant pressure (338.14 K, x1 = 0.0494): 244.22 ± 3.8 J/K/mol | molar heat capacity at constant pressure (338.14 K, x1 = 0.1): 252.49 ± 3.9 J/K/mol | molar heat capacity at constant pressure (338.14 K, x1 = 0.2993): 274.14 ± 4.2 J/K/mol | molar heat capacity at constant pressure (338.14 K, x1 = 0.4051): 280.08 ± 4.3 J/K/mol | molar heat capacity at constant pressure (338.14 K, x1 = 0.4986): 283.63 ± 4.4 J/K/mol | molar heat capacity at constant pressure (338.14 K, x1 = 0.5981): 286.18 ± 4.4 J/K/mol | molar heat capacity at constant pressure (338.14 K, x1 = 0.7015): 287.86 ± 4.5 J/K/mol | molar heat capacity at constant pressure (338.14 K, x1 = 0.8023): 287.94 ± 4.5 J/K/mol | molar heat capacity at constant pressure (338.14 K, x1 = 0.9139): 287.19 ± 4.5 J/K/mol | molar heat capacity at constant pressure (338.16 K, x1 = 0.1547): 260.35 ± 4 J/K/mol | molar heat capacity at constant pressure (338.16 K, x1 = 0.1999): 265.67 ± 4.1 J/K/mol | molar heat capacity at constant pressure (338.16 K, x1 = 0.9609): 286.41 ± 4.4 J/K/mol | molar heat capacity at constant pressure (339.14 K, x1 = 0.0061): 241 ± 3.7 J/K/mol | molar heat capacity at constant pressure (339.14 K, x1 = 0.0249): 241.65 ± 3.7 J/K/mol | molar heat capacity at constant pressure (339.14 K, x1 = 0.0494): 244.45 ± 3.8 J/K/mol | molar heat capacity at constant pressure (339.14 K, x1 = 0.1): 252.62 ± 3.9 J/K/mol | molar heat capacity at constant pressure (339.14 K, x1 = 0.1547): 260.43 ± 4 J/K/mol | molar heat capacity at constant pressure (339.14 K, x1 = 0.1999): 265.8 ± 4.1 J/K/mol | molar heat capacity at constant pressure (339.14 K, x1 = 0.2993): 274.34 ± 4.2 J/K/mol | molar heat capacity at constant pressure (339.14 K, x1 = 0.4051): 280.35 ± 4.3 J/K/mol | molar heat capacity at constant pressure (339.14 K, x1 = 0.4986): 284.12 ± 4.4 J/K/mol | molar heat capacity at constant pressure (339.14 K, x1 = 0.5981): 286.77 ± 4.4 J/K/mol | molar heat capacity at constant pressure (339.14 K, x1 = 0.7015): 288.43 ± 4.5 J/K/mol | molar heat capacity at constant pressure (339.14 K, x1 = 0.8023): 288.55 ± 4.5 J/K/mol | molar heat capacity at constant pressure (339.14 K, x1 = 0.9139): 287.89 ± 4.5 J/K/mol | molar heat capacity at constant pressure (339.14 K, x1 = 0.9609): 287.02 ± 4.5 J/K/mol | molar heat capacity at constant pressure (340.15 K, x1 = 0.0061): 241.53 ± 3.7 J/K/mol | molar heat capacity at constant pressure (340.15 K, x1 = 0.0249): 242.15 ± 3.8 J/K/mol | molar heat capacity at constant pressure (340.15 K, x1 = 0.0494): 244.83 ± 3.8 J/K/mol | molar heat capacity at constant pressure (340.15 K, x1 = 0.1): 252.82 ± 3.9 J/K/mol | molar heat capacity at constant pressure (340.15 K, x1 = 0.1547): 260.57 ± 4 J/K/mol | molar heat capacity at constant pressure (340.15 K, x1 = 0.1999): 266.02 ± 4.1 J/K/mol | molar heat capacity at constant pressure (340.15 K, x1 = 0.2993): 274.71 ± 4.3 J/K/mol | molar heat capacity at constant pressure (340.15 K, x1 = 0.4051): 280.76 ± 4.3 J/K/mol | molar heat capacity at constant pressure (340.15 K, x1 = 0.4986): 284.68 ± 4.4 J/K/mol | molar heat capacity at constant pressure (340.15 K, x1 = 0.5981): 287.28 ± 4.5 J/K/mol | molar heat capacity at constant pressure (340.15 K, x1 = 0.7015): 289.07 ± 4.5 J/K/mol | molar heat capacity at constant pressure (340.15 K, x1 = 0.8023): 289.24 ± 4.5 J/K/mol | molar heat capacity at constant pressure (340.15 K, x1 = 0.9139): 288.58 ± 4.5 J/K/mol | molar heat capacity at constant pressure (340.15 K, x1 = 0.9609): 287.73 ± 4.5 J/K/mol | molar heat capacity at constant pressure (341.14 K, x1 = 0.0249): 242.51 ± 3.8 J/K/mol | molar heat capacity at constant pressure (341.14 K, x1 = 0.9139): 289.17 ± 4.5 J/K/mol | molar heat capacity at constant pressure (341.16 K, x1 = 0.0061): 241.89 ± 3.8 J/K/mol | molar heat capacity at constant pressure (341.16 K, x1 = 0.0494): 245.03 ± 3.8 J/K/mol | molar heat capacity at constant pressure (341.16 K, x1 = 0.1): 252.79 ± 3.9 J/K/mol | molar heat capacity at constant pressure (341.16 K, x1 = 0.1547): 260.64 ± 4 J/K/mol | molar heat capacity at constant pressure (341.16 K, x1 = 0.1999): 266.06 ± 4.1 J/K/mol | molar heat capacity at constant pressure (341.16 K, x1 = 0.2993): 274.84 ± 4.3 J/K/mol | molar heat capacity at constant pressure (341.16 K, x1 = 0.4051): 281 ± 4.3 J/K/mol | molar heat capacity at constant pressure (341.16 K, x1 = 0.4986): 284.87 ± 4.4 J/K/mol | molar heat capacity at constant pressure (341.16 K, x1 = 0.5981): 287.66 ± 4.5 J/K/mol | molar heat capacity at constant pressure (341.16 K, x1 = 0.7015): 289.5 ± 4.5 J/K/mol | molar heat capacity at constant pressure (341.16 K, x1 = 0.8023): 289.74 ± 4.5 J/K/mol | molar heat capacity at constant pressure (341.16 K, x1 = 0.9609): 288.3 ± 4.5 J/K/mol | molar heat capacity at constant pressure (342.14 K, x1 = 0.0061): 242.38 ± 3.8 J/K/mol | molar heat capacity at constant pressure (342.14 K, x1 = 0.0249): 242.91 ± 3.8 J/K/mol | molar heat capacity at constant pressure (342.14 K, x1 = 0.0494): 245.35 ± 3.8 J/K/mol | molar heat capacity at constant pressure (342.14 K, x1 = 0.1): 253 ± 3.9 J/K/mol | molar heat capacity at constant pressure (342.14 K, x1 = 0.1547): 260.67 ± 4 J/K/mol | molar heat capacity at constant pressure (342.14 K, x1 = 0.1999): 266.17 ± 4.1 J/K/mol | molar heat capacity at constant pressure (342.14 K, x1 = 0.2993): 275.1 ± 4.3 J/K/mol | molar heat capacity at constant pressure (342.14 K, x1 = 0.4051): 281.32 ± 4.4 J/K/mol | molar heat capacity at constant pressure (342.14 K, x1 = 0.4986): 285.37 ± 4.4 J/K/mol | molar heat capacity at constant pressure (342.14 K, x1 = 0.5981): 288.22 ± 4.5 J/K/mol | molar heat capacity at constant pressure (342.14 K, x1 = 0.7015): 290.08 ± 4.5 J/K/mol | molar heat capacity at constant pressure (342.14 K, x1 = 0.8023): 290.39 ± 4.5 J/K/mol | molar heat capacity at constant pressure (342.14 K, x1 = 0.9139): 289.86 ± 4.5 J/K/mol | molar heat capacity at constant pressure (342.14 K, x1 = 0.9609): 288.96 ± 4.5 J/K/mol | molar heat capacity at constant pressure (343.15 K, x1 = 0.0061): 242.71 ± 3.8 J/K/mol | molar heat capacity at constant pressure (343.15 K, x1 = 0.0249): 243.18 ± 3.8 J/K/mol | molar heat capacity at constant pressure (343.15 K, x1 = 0.0494): 245.62 ± 3.8 J/K/mol | molar heat capacity at constant pressure (343.15 K, x1 = 0.1): 253.03 ± 3.9 J/K/mol | molar heat capacity at constant pressure (343.15 K, x1 = 0.1547): 260.73 ± 4 J/K/mol | molar heat capacity at constant pressure (343.15 K, x1 = 0.1999): 266.34 ± 4.1 J/K/mol | molar heat capacity at constant pressure (343.15 K, x1 = 0.2993): 275.23 ± 4.3 J/K/mol | molar heat capacity at constant pressure (343.15 K, x1 = 0.4051): 281.6 ± 4.4 J/K/mol | molar heat capacity at constant pressure (343.15 K, x1 = 0.4986): 285.7 ± 4.4 J/K/mol | molar heat capacity at constant pressure (343.15 K, x1 = 0.5981): 288.61 ± 4.5 J/K/mol | molar heat capacity at constant pressure (343.15 K, x1 = 0.7015): 290.51 ± 4.5 J/K/mol | molar heat capacity at constant pressure (343.15 K, x1 = 0.8023): 290.89 ± 4.5 J/K/mol | molar heat capacity at constant pressure (343.15 K, x1 = 0.9139): 290.38 ± 4.5 J/K/mol | molar heat capacity at constant pressure (343.15 K, x1 = 0.9609): 289.53 ± 4.5 J/K/mol | molar heat capacity at constant pressure (344.16 K, x1 = 0.0061): 243.26 ± 3.8 J/K/mol | molar heat capacity at constant pressure (344.16 K, x1 = 0.0249): 243.63 ± 3.8 J/K/mol | molar heat capacity at constant pressure (344.16 K, x1 = 0.0494): 245.97 ± 3.8 J/K/mol | molar heat capacity at constant pressure (344.16 K, x1 = 0.1): 253.15 ± 3.9 J/K/mol | molar heat capacity at constant pressure (344.16 K, x1 = 0.1547): 260.83 ± 4 J/K/mol | molar heat capacity at constant pressure (344.16 K, x1 = 0.1999): 266.48 ± 4.1 J/K/mol | molar heat capacity at constant pressure (344.16 K, x1 = 0.2993): 275.42 ± 4.3 J/K/mol | molar heat capacity at constant pressure (344.16 K, x1 = 0.4051): 281.89 ± 4.4 J/K/mol | molar heat capacity at constant pressure (344.16 K, x1 = 0.4986): 286.07 ± 4.4 J/K/mol | molar heat capacity at constant pressure (344.16 K, x1 = 0.5981): 289.06 ± 4.5 J/K/mol | molar heat capacity at constant pressure (344.16 K, x1 = 0.7015): 291.07 ± 4.5 J/K/mol | molar heat capacity at constant pressure (344.16 K, x1 = 0.8023): 291.49 ± 4.5 J/K/mol | molar heat capacity at constant pressure (344.16 K, x1 = 0.9139): 291.02 ± 4.5 J/K/mol | molar heat capacity at constant pressure (344.16 K, x1 = 0.9609): 290.18 ± 4.5 J/K/mol | molar heat capacity at constant pressure (345.14 K, x1 = 0.0061): 243.73 ± 3.8 J/K/mol
